Laboratory results reported in patent US20230192683A1, “FUSED RING COMPOUNDS, PREPARATION METHOD THEREFOR, PHARMACEUTICAL COMPOSITIONS AND USE THEREOF” (priority 2020, published 2023).
Structures can show the parent of a compound that is named as a salt. Marks after values point to notes of the source that are not given here.

Experiments:
human SSTR4 = target: T1, human SSTR4 (Homo sapiens, UniProt P31391); test: cell-based human SSTR4 cAMP assay (agonist activity); conditions: SSTR4, EC50 (nM), Flp-In-CHO-SSTR4 stable pool, Forskolin-stimulated cAMP
T1 construct: expressed in transfected cells
Procedure: Purpose of test: A cell-based human SSTR4 cAMP assay was used to determine the agonistic effect of the test compound on an SSTR 4 receptor.
Cell culture and reagent preparation: cell line: Flp-In-CHO-SSTR4 stable pool; complete medium: Ham’s F-12 K + 10% FBS + 1 × penicillin-streptomycin (PS) + 600 µg/ml hygromycin B; cell seeding medium: Ham’s F-12K + 10% FBS; assay buffer: 1 × HBSS + 20 mM HEPES + 0.1%BSA + 500 uM IBMX.
The Flp-In-CHO-SSTR 4 stable pool cell line was cultured in a complete medium at 37° C., 5% CO2 until a confluency of 70% to 90%.
After TrypLE digestion, the cells were resuspended in the seeding medium and seeded in a 384-well cell culture plate (384 PE culture plate), with 7,000 cells per well, and were cultured overnight at 37° C., 5% CO2.
The cell culture plate was taken out, inverted at 200 g at room temperature for 5 s to remove the medium, then quickly filled with 15 µl of an experimental buffer to each experimental well, and centrifuged at 200 g at room temperature for 5 s.
2.5 µl of the 8x compound working solution diluted in step 3 was added to corresponding test wells, which were centrifuged at 200 g for 5 s at room temperature, and incubated at 37° C. for 10 min.
A 4 uM Forskolin working solution (8x) was prepared.
The cell plate was taken out and equilibrated to room temperature, then filled with 2.5 µl of the 8x Forskolin working solution prepared in step 6 to corresponding test wells, followed by RT at 200 g for 5 s, and left to stand at 37° C. for 30 min.
A Eu-cAMP tracer and Uliaght-anti-cAMP were freeze-thawed, the Eu-cAMP tracer was diluted 50-fold with a detection buffer, and the Uliaght-anti-cAMP was dilutd 150-fold.
10 µl of the Eu-cAMP tracer was added to all experimental wells, then 10 µl of the detection buffer was added to NC wells, and 10 µl of the Uliaght-anti-cAMP was added to the remaining experimental wells.
The reaction plate was centrifuged at 200 g for 30 s at room temperature, and after standing at 25° C. for 1 h, data was collected using Envision.
Compound EC50 was calculated using a GraphPad nonlinear fitting formula: […]
X: Compound concentration log value; Y: HTRF ratio

rat CFA pain model [1] = test: single-dose pharmacodynamic study in rat CFA pain model (Von Frey PWT); assay type: in vivo
Procedure: Each male SD rat (7-8 weeks old) was injected with 50 microliters of CFA in the center of the left hind paw. A PWT basal value test was conducted 24 hours after modeling, and the drugs were administered after randomization.
There were 8 animals in each group, and the animals were weighed and administered according to Table 4.
For all groups of animals, paw withdrawal thresholds (PWTs) of the animals were tested using Von Frey after 1 h and 3 h of single administration.

rat CFA pain model [2] = test: multi-dose oral pharmacodynamic study in rat CFA pain model (Von Frey PWT); assay type: in vivo
Procedure: The efficacy of Compound 1a and Compound 14 in the rat CFA pain model was evaluated using a mechanical allodynia method.
SD rats, 72 males, divided into 9 groups, were purchased from Beijing Vital River Laboratory Animal Technology Co., Ltd.
The experimental animals were adaptively reared for 3 to 7 days, and 8 of them were selected as a normal control group, and the other animals were injected with 50 µL of CFA in the center of the left hind paw for modeling. 24 hours after injection, the animals were tested for paw withdrawal threshold (PWT) basal values, and were divided into groups according to the basal values, which were solvent control group, indomethacin group, Compound 1a, 10 mpk group, Compound 1a, 30 mpk group, Compound 1a, 100 mpk group, Compound 14, 3 mpk group, Compound 14, 10 mpk group, and Compound 14, 30 mpk group, with 8 animals in each group. Subsequently, the animals were weighed and administered orally according to Table 6. All the animals were tested for paw withdrawal thresholds (PWT) using Von Frey 1, 2, and 4 hours after administration to further evaluate the efficacy of the compounds of the present invention.

T1 sequence (P31391 whole entry): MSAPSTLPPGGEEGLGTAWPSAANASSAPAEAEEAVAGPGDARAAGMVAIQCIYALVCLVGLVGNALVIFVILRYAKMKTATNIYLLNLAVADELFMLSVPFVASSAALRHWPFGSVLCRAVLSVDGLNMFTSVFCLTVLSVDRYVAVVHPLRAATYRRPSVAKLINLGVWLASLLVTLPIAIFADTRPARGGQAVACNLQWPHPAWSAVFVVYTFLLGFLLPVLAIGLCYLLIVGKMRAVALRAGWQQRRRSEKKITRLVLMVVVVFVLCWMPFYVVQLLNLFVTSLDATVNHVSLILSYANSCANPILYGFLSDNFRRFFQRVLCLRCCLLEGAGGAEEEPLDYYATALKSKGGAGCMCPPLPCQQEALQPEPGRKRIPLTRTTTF

## CSc1cccn2c(C(C)(C)NC(=O)C3C4CNCC43C)ncc12 (single isomer, unassigned) [Compound 5-P1, 1-Methyl-N-(2-(8-(Methylthio)Imidazo[1,5-a]Pyridin-3-yl)Propan-2-yl)-3-Azabicyclo[3.1.0]Hexane-6-Carboxamide]
Human SSTR4
  EC50: 1.25 nM

## CC(C)(NC(=O)[C@H]1[C@@H]2CNC[C@@H]21)c1ncc2c(SCC3CCCC3)cccn12 [Compound 13, (1R,5S,6R)-N-(2-(8-((Cyclopentylmethyl)Thio)Imidazo[1,5-a]Pyridin-3-yl)Propan-2-yl)-3-Azabicyclo[3.1.0]Hexane-6-Carboxamide]
Human SSTR4
  EC50: 7.58 nM

## CCSc1cccn2c(C(C)(C)NC(=O)[C@H]3[C@@H]4CNC[C@@H]43)ncc12 [Compound 6, (1R,5S,6R)-N-(2-(8-(Ethylthio)Imidazo[1,5-a]Pyridin-3-yl)Prop-2-yl)-3-Azabicyclo[3.1.0]Hexane-6-Carboxamide Hydrochloride]
Human SSTR4
  EC50: 0.73 nM

## CSc1ccccc1C(C)(C)NC(=O)[C@H]1[C@@H]2CNC[C@@H]21 [Compound 16, (1R,5S,6R)-N-(2-(2-(Methylthio)Phenyl)Propan-2-yl)-3-Azabicyclo[3.1.0]Hexane-6-Carboxamide]
Human SSTR4
  EC50: 1.25 nM

## CC(C)(CSc1ccccc1C(F)(F)F)NC(=O)[C@H]1[C@@H]2CNC[C@@H]21 [Compound 2, (1R,5S,6R)-N-(2-Methyl-1-((2-(Trifluoromethyl)Phenyl)Thio)Prop-2-yl)-3-Azabicyclo[3.1.0]Hexane-6-Carboxamide Formate]
Human SSTR4
  EC50: 6.77 nM

## CC(C)(NC(=O)[C@H]1[C@@H]2CNC[C@@H]21)c1ncc2c(SCC3CC3)cccn12 [Compound 8, (1R,5S,6R)-N-(2-(8-((Cyclopropylmethyl)Thio)Imidazo[1,5-a]Pyridin-3-yl)Propan-2-yl)-3-Azabicyclo[3.1.0]Hexane-6-Carboxamide]
Human SSTR4
  EC50: 0.5 nM

## CC(C)(NC(=O)[C@H]1[C@@H]2CNC[C@@H]21)c1ncc2c(SCc3ccccc3)cccn12 [Compound 9, (1R,5S,6R)-N-(2-(8-(Benzylthio)Imidazo[1,5-a]Pyridin-3-yl)Prop-2-yl)-3-Azabicyclo[3.1.0]Hexane-6-Carboxamide]
Human SSTR4
  EC50: 3.42 nM

## COc1ccc2c(c1)c(CC(=O)O)c(C)n2C(=O)c1ccc(Cl)cc1 [Indomethacin, reference compound]
Rat CFA pain model [1]; 30 mg/kg P.O. group, baseline 24 h after CFA, before administration
  Mechanical allodynia test (PWT (g), mean) Baseline: 3.554 g
Rat CFA pain model [1]; 30 mg/kg P.O., 1 hour after single administration
  Mechanical allodynia test (PWT (g), mean) 1 hour: 4.448 g
Rat CFA pain model [1]; 30 mg/kg P.O., 3 hours after administration, FIG. 1
  inhibition of CFA-induced mechanical allodynia (in words): significantly inhibit
Rat CFA pain model [1]; 30 mg/kg P.O., 3 hours after single administration
  Mechanical allodynia test (PWT (g), mean) 3 hours: 10.360 **** #### g
Rat CFA pain model [2]; 30 mg/kg oral group, 0 hours
  Paw withdrawal threshold (PWT(g)) (average) 0 hours: 3.012 g
Rat CFA pain model [2]; 30 mg/kg oral, 2 and 4 hours after administration, FIG. 2
  inhibition of CFA-induced mechanical allodynia (in words): significantly inhibited
Rat CFA pain model [2]; 30 mg/kg oral, 1 hour
  Paw withdrawal threshold (PWT(g)) (average) 1 hour: 4.461 g
Rat CFA pain model [2]; 30 mg/kg oral, 2 hours
  Paw withdrawal threshold (PWT(g)) (average) 2 hours: 7.486 ** g
Rat CFA pain model [2]; 30 mg/kg oral, 4 hours
  Paw withdrawal threshold (PWT(g)) (average) 4 hours: 6.813 ** g

## CC(C)(NC(=O)[C@H]1[C@@H]2CNC[C@@H]21)c1ncc2c(SC3CCCC3)cccn12 [Compound 3, (1R,SS,6R)-N(2-(8-(Cyclopentylthio)Imidazo[1,5-a]Pyridin-3-yl)Prop-2-yl)-3-Azabicyclo[3.1.0]Hexane-6-Carboxamide]
Human SSTR4
  EC50: 10.5 nM

## CC(C)CSc1cccn2c(C(C)(C)NC(=O)[C@H]3[C@@H]4CNC[C@@H]43)ncc12 [Compound 10, (1R,5S,6R)-N-(2-(8-(Isobutylthio)Imidazo[1,5-a]Pyridin-3-yl)Prop-2-yl)-3-Azabicyclo[3.1.0]Hexane-6-Carboxamide]
Human SSTR4
  EC50: 7.89 nM

## CC(C)(NC(=O)[C@H]1[C@@H]2CNC[C@@H]21)c1ncc2c(SCC3CCC3)cccn12 [Compound 11, (1R,5S,6R)-N-(2-(8-((Cyclobutylmethyl)Thio)Imidazo[1,5-a]Pyridin-3-yl)Propan-2-yl)-3-Azabicyclo[3.1.0]Hexane-6-Carboxamide]
Human SSTR4
  EC50: 2.47 nM

## CC(C)Sc1cccn2c(C(C)(C)NC(=O)[C@H]3[C@@H]4CNC[C@@H]43)ncc12 [Compound 7, (1R,5S,6R)-N-(2-(8-(Isopropylthio)Imidazo[1,5-a]Pyridin-3-yl)Prop-2-yl)-3-Azabicyclo[3.1.0]Hexane-6-Carboxamide]
Human SSTR4
  EC50: 3.29 nM
